The record followed here is US20070244103A1, “Novel Compounds Having an Anti-Bacterial Activity” (Morphochem Aktiengesellschaft Fur Kombinatorische Chemie, priority 2004, published 2007).

The nature of this test: MIC of the examples against various organisms. To be noted: against at least two of the above organisms (12-strain panel). The class given is cell-based. The method, then: The MIC (μg/ml) of the examples against various organisms was determined: A. baumannii ATCC19606, E. cloacae ATCC23355, E. coli ATCC25922, K. pneumoniae ATCC27736, P. mirabilis ATCC29906, P. aeruginosa ATCC27853, S. maltophilia ATCC13637, S. aureus ATCC43300, S. epidermidis ATCC14990, S. haemolyticus ATCC29970, E. faecalis ATCC29212 and E. faecium ATC19434.
As a reminder, the MIC is the least concentration at which growth counts as inhibited. For the compound `COc1ccc2ncc(Cl)c(C(O)CN3CCCC(CNCc4ccc5c(c4)NC(=O)CS5)C3)c2c1` (single isomer, unassigned) [Example 68, 6-[({1-[2-(3-Chloro-6-methoxy-quinolin-4-yl)-2-hydroxy-ethyl]-piperidin-3-ylmethyl}-amino)-methyl]-4H-benzo[1,4]thiazin-3-one], the MIC is at most 2 µg/mL.
As for `COc1ccc2ncc(Cl)c(C(O)CN3CCCC(CNC/C=C/c4ccccc4)C3)c2c1` (single isomer, unassigned) [Example 69, 1-(3-Chloro-6-methoxy-quinolin-4-yl)-2-{3-[((E)-3-phenyl-allylamino)-methyl]-piperidin-1-yl}-ethanol], the figure is at most 2 µg/mL.
As for `COc1ccc2ncc(Cl)c(C(O)CN3CCCC(CNCc4ccc5nsnc5c4)C3)c2c1` (single isomer, unassigned) [Example 70, 2-(3-{[(Benzo[1,2,5]thiadiazol-5-ylmethyl)-amino]-methyl}-piperidin-1-yl)-1-(3-chloro-6-methoxy-quinolin-4-yl)-ethanol], the figure is at most 2 µg/mL; as for `COc1ccc2ncc(Cl)c(C(O)CN3CCOC(CNCc4ccc5c(c4)NC(=O)CO5)C3)c2c1` (single isomer, unassigned) [Example 71, 6-[({4-[2-(3-Chloro-6-methoxy-quinolin-4-yl)-2-hydroxy-ethyl]-morpholin-2-ylmethyl}-amino)-methyl]-4H-benzo[1,4]oxazin-3-one], at most 2 µg/mL; as for `COc1ccc2ncc(Cl)c(C(O)CN3CCOC(CNCc4ccc5c(c4)OCO5)C3)c2c1` (single isomer, unassigned) [Example 72, 2-(2-{[(Benzo[1,3]dioxol-5-ylmethyl)-amino]-methyl}-morpholin-4-yl)-1-(3-chloro-6-methoxy-quinolin-4-yl)-ethanol], at most 2 µg/mL.
The result for `COc1ccc2ncc(Cl)c(C(O)CN3CCOC(CNCc4ccc5c(c4)OCCO5)C3)c2c1` (single isomer, unassigned) [Example 73, 1-(3-Chloro-6-methoxy-quinolin-4-yl)-2-(2-{[(2,3-dihydro-benzo[1,4]dioxin-6-ylmethyl)-amino]-methyl}-morpholin-4-yl)-ethanol] reads at most 2 µg/mL.
Turning to `COc1ccc2ncc(Cl)c(C(O)CN3CCOC(CNCc4ccc5nsnc5c4)C3)c2c1` (single isomer, unassigned) [Example 74, 2-(2-{[(Benzo[1,2,5]thiadiazol-5-ylmethyl)-amino]-methyl}-morpholin-4-yl)-1-(3-chloro-6-methoxy-quinolin-4-yl)-ethanol], the MIC is at most 2 µg/mL.
The result for `COc1ccc2ncc(Cl)c(C(O)CN3CCOC(CNCc4cc5c(cc4F)SCC(=O)N5)C3)c2c1` (single isomer, unassigned) [Example 75, 6-[({4-[2-(3-Chloro-6-methoxy-quinolin-4-yl)-2-hydroxy-ethyl]-morpholin-2-ylmethyl}-amino)-methyl]-7-fluoro-4H-benzo[1,4]thiazin-3-one] reads at most 2 µg/mL; that for `COc1ccc2ncc(Cl)c(C(O)CN3CCOC(CNCc4ccc5c(c4)NC(=O)CS5)C3)c2c1` (single isomer, unassigned) [Example 76, 6-[({4-[2-(3-Chloro-6-methoxy-quinolin-4-yl)-2-hydroxy-ethyl]-morpholin-2-ylmethyl}-amino)-methyl]-4H-benzo[1,4]thiazin-3-one], at most 2 µg/mL.
As to `COc1ccc2ncc(Cl)c(C(O)CN3CCOC(CNC/C=C/c4ccccc4)C3)c2c1` (single isomer, unassigned) [Example 77, 1-(3-Chloro-6-methoxy-quinolin-4-yl)-2-{2-[((E)-3-phenyl-allylamino)-methyl]-morpholin-4-yl}-ethanol], the minimal inhibitory concentration (MIC) was at most 2 µg/mL.
As for `COc1ccc2nccc(NC(=O)C3CCCC(CNCc4ccc5c(c4)NC(=O)CO5)C3)c2n1` (stereo not shown) [Example 15, 3-{[(3-Oxo-3,4-dihydro-2H-benzo[1,4]oxazin-6-ylmethyl)-amino]-methyl}-cyclohexanecarboxylic acid (6-methoxy-[1,5]-naphthyridin-4-yl)-amide], the figure is at most 2 µg/mL; as for `COc1ccc2nccc(NC(=O)C3CCCC(CNCc4ccc5c(c4)NC(=O)CS5)C3)c2n1` (stereo not shown) [Example 16, 3-{[(3-Oxo-3,4-dihydro-2H-benzo[1,4]thiazin-6-ylmethyl)-amino]-methyl}-cyclohexanecarboxylic acid (6-methoxy-[1,5]-naphthyridin-4-yl)-amide], at most 2 µg/mL.
The result for `COc1ccc2nccc(NC(=O)C3CCCC(CNCc4ccc5c(n4)NC(=O)CS5)C3)c2n1` (stereo not shown) [Example 17, 3-{[(3-Oxo-3,4-dihydro-2H-pyrido[3,2-b][1,4]thiazin-6-ylmethyl)-amino]-methyl}-cyclohexanecarboxylic acid (6-methoxy-[1,5]-naphthyridin-4-yl)-amide] reads at most 2 µg/mL; that for `COc1ccc2nccc(NC(=O)C3CCCC(CNCc4ccc5c(c4)OCCO5)C3)c2n1` (stereo not shown) [Example 19, 3-{[(2,3-Dihydro-benzo[1,4]dioxin-6-ylmethyl)-amino]-methyl}-cyclohexanecarboxylic acid (6-methoxy-[1,5]-naphthyridin-4-yl)-amide], at most 2 µg/mL; that for `COc1ccc2nccc(NC(=O)C3CCCC(CNCc4ccc5nsnc5c4)C3)c2n1` (stereo not shown) [Example 20, 3-{[(Benzo[1,2,5]thiadiazol-5-ylmethyl)-amino]-methyl}-cyclohexanecarboxylic acid (6-methoxy-[1,5]-naphthyridin-4-yl)-amide], at most 2 µg/mL.
The result for `COc1ccc2nccc(NC(=O)C3CCCC(CNC/C=C/c4ccccc4)C3)c2n1` (stereo not shown) [Example 22, 3-[((E)-3-Phenyl-allylamino)-methyl]-cyclohexanecarboxylic acid (6-methoxy-[1,5]-naphthyridin-4-yl)-amide] reads at most 2 µg/mL.
As for `COc1ccc2nccc(NC(=O)C3CCCC(CNCc4cc5c(cc4F)SCC(=O)N5)C3)c2n1` (stereo not shown) [Example 24, 3-{[(7-Fluoro-3-oxo-3,4-dihydro-2H-benzo[1,4]thiazin-6-ylmethyl)-amino]-methyl}-cyclohexanecarboxylic acid (6-methoxy-[1,5]-naphthyridin-4-yl)-amide], the MIC is at most 2 µg/mL.
The result for `COc1ccc2ncc(Cl)c(C(O)CN3C4CCC3CC(NCc3ccc5c(c3)OCCO5)C4)c2n1` (stereo not shown) [Example 25, 1-(3-Chloro-6-methoxy-[1,5]-naphthyridin-4-yl)-2-{3-[(2,3-dihydro-benzo[1,4]dioxin-6-ylmethyl)-amino]-8-aza-bicyclo[3.2.1]oct-8-yl}-ethanol] reads at most 2 µg/mL.
As for `COc1ccc2ncc(Cl)c(C(O)CN3C4CCC3CC(NCc3ccc5nsnc5c3)C4)c2n1` (stereo not shown) [Example 26, 2-{3-[(Benzo[1,2,5]thiadiazol-5-ylmethyl)-amino]-8-aza-bicyclo[3.2.1]oct-8-yl}-1-(3-chloro-6-methoxy-[1,5]-naphthyridin-4-yl)-ethanol], the figure is at most 2 µg/mL.
The result for `COc1ccc2ncc(Cl)c(C(O)CN3C4CCC3CC(NCc3ccc5c(c3)NC(=O)CO5)C4)c2n1` (stereo not shown) [Example 27, 6-({8-[2-(3-Chloro-6-methoxy-[1,5]-naphthyridin-4-yl)-2-hydroxy-ethyl]-8-aza-bicyclo[3.2.1]oct-3-ylamino}-methyl)-4H-benzo[1,4]oxazin-3-one] reads at most 2 µg/mL; that for `COc1ccc2ncc(Cl)c(C(O)CN3C4CCC3CC(NCc3cc5c(cc3F)SCC(=O)N5)C4)c2n1` (stereo not shown) [Example 28, 6-({8-[2-(3-Chloro-6-methoxy-[1,5]-naphthyridin-4-yl)-2-hydroxy-ethyl]-8-aza-bicyclo[3.2.1]oct-3-ylamino}-methyl)-7-fluoro-4H-benzo[1,4]thiazin-3-one], at most 2 µg/mL; that for `COc1ccc2ncc(Cl)c(C(O)CN3C4CCC3CC(NCc3ccc5c(c3)NC(=O)CS5)C4)c2n1` (stereo not shown) [Example 29, 6-({8-[2-(3-Chloro-6-methoxy-[1,5]-naphthyridin-4-yl)-2-hydroxy-ethyl]-8-aza-bicyclo[3.2.1]oct-3-ylamino}-methyl)-4H-benzo[1,4]thiazin-3-one], at most 2 µg/mL.
In the case of `COc1ccc2ncc(Cl)c(C(O)CN3C4CCC3CC(NCc3cc5c(cn3)OCCO5)C4)c2n1` (stereo not shown) [Example 30, 1-(3-Chloro-6-methoxy-[1,5]-naphthyridin-4-yl)-2-{3-[(2,3-dihydro-[1,4]dioxino[2,3-c]pyridin-7-ylmethyl)-amino]-8-aza-bicyclo[3.2.1]oct-8-yl}-ethanol], the MIC is at most 2 µg/mL.
The result for `COc1ccc2nccc(C(O)CN3CCOC(CNCc4ccc5c(c4)OCCO5)C3)c2n1` (stereo not shown) [Example 31, 2-(2-{[(2,3-Dihydro-benzo[1,4]dioxin-6-ylmethyl)-amino]-methyl}-morpholin-4-yl)-1-(6-methoxy-[1,5]naphthyridin-4-yl)-ethanol] reads at most 2 µg/mL; that for `COc1ccc2nccc(C(O)CN3CCOC(CNCc4ccc5c(c4)NC(=O)CS5)C3)c2n1` (stereo not shown) [Example 32, 6-[({4-[2-Hydroxy-2-(6-methoxy-[1,5]naphthyridin-4-yl)-ethyl]-morpholin-2-ylmethyl}amino)-methyl]-4H-benzo[1,4]thiazin-3-one], at most 2 µg/mL; that for `COc1ccc2nccc(C(O)CN3CCOC(CNCc4ccc5c(n4)NC(=O)CS5)C3)c2n1` (stereo not shown) [Example 33, 6-[({4-[2-Hydroxy-2-(6-methoxy-[1,5]naphthyridin-4-yl)-ethyl]-morpholin-2-ylmethyl}amino)-methyl]-4H-pyrido[3,2-b][1,4]thiazin-3-one], at most 2 µg/mL.
The result for `COc1ccc2nccc(C(O)CN3CCOC(CNCc4ccc5c(c4)NC(=O)CO5)C3)c2n1` (stereo not shown) [Example 34, 6-[({4-[2-Hydroxy-2-(6-methoxy-[1,5]naphthyridin-4-yl)-ethyl]-morpholin-2-ylmethyl}amino)-methyl]-4H-benzo[1,4]oxazin-3-one] reads at most 2 µg/mL; that for `COc1cnc2cccc(C(O)CN3C4CCC3CC(NC/C=C/c3ccccc3)C4)c2c1` (stereo not shown) [Example 38, 1-(3-Methoxy-quinolin-5-yl)-2-[3-((E)-3-phenylallylamino)-8-aza-bicyclo[3.2.1]oct-8-yl]-ethanol], at most 2 µg/mL.
